Source: ChEMBL document CHEMBL1129395, “Targeting the minor groove of DNA: crystal structures of two complexes between furan derivatives of berenil and the DNA dodecamer d(CGCGAATTCGCG)2” (1996)

How the values were obtained:
Type in all cases: functional
[1] = test system: Cryptosporidium parvum; experiment: percentage of controls is reported as the counted oocysts obtained from alimentary tract tissues using a blinded protocol on Cryptosporidium parvum at dose of 62 umol/kg/day
[2] = test system: Pneumocystis carinii; experiment: Percentage of control was reported as the counted cysts in lung tissue using blinded protocol of saline-treated controls on Pneumocystis carinii at dose of 22.1 umol/kg/day
[3] = test system: Pneumocystis carinii; experiment: in vivo activity against Pneumocystis carinii at dose of 22.1 umol/kg/day
[4] = In vitro increase in thermal melting of oligomer d(CGCGAATTCGCG)2

N=C(N)c1ccc(OCCCCCOc2ccc(C(=N)N)cc2)cc1 [PENTAMIDINE]
Of control [1]: 20.8% | Of control [2]: 1.47% | Toxicity [3]: 2 | ΔTm [4]: 4.8
